Results taken from patent US20100267561A1, “HERBICIDAL PYRIDAZINONE DERIVATIVES” (priority 2007, published 2010).

What was measured:
Assay in all cases: Test B pre-/postemergence plant response
Format in all cases: in vivo
[1] = system: downy bromegrass (Bromus tectorum); details: for Bromegrass, Downy plant response rating: 8 g ai/ha
How it was run: (§1)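 Seeds were sown and sprayed preemergence, while plants at 2 to 18 cm (1- to 4-leaf stage) got postemergence sprays. Compounds were formulated in a non-phytotoxic solvent mixture with surfactant. After 13 to 15 days in a greenhouse, injury was rated visually against untreated controls, 0 (no effect) to 100 (complete control).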

wild oat (Avena fatua) = details: for Oat, Wild plant response rating: 8 g ai/ha
How it was run: as §1

corn (Zea mays) = details: for Corn plant response rating: 8 g ai/ha
How it was run: as §1

[2] = system: woolly cupgrass (Eriochloa villosa); details: for Cupgrass, Woolly plant response rating: 8 g ai/ha
How it was run: as §1

[3] = system: common ragweed (Ambrosia elation); details: for Ragweed plant response rating: 8 g ai/ha
How it was run: as §1

[4] = system: morningglory (Ipomoea coccinea); details: for Morningglory plant response rating: 8 g ai/ha
How it was run: as §1

[5] = system: goosegrass (Eleusine indica); details: for Goosegrass plant response rating: 8 g ai/ha
How it was run: as §1

[6] = system: lambsquarters (Chenopodium album); details: for Lambsquarters plant response rating: 8 g ai/ha
How it was run: as §1

[7] = system: catchweed bedstraw (Galium aparine); details: Preemergence
How it was run: as §1

[8] = system: pigweed (Amaranthus retroflexus); details: for Pigweed plant response rating: 8 g ai/ha
How it was run: as §1

[9] = system: green foxtail (Setaria viridis); details: for Foxtail, Green plant response rating: 8 g ai/ha
How it was run: as §1

[10] = system: giant foxtail (Setaria faberii); details: for Foxtail, Giant plant response rating: 8 g ai/ha
How it was run: as §1

[11] = system: blackgrass (Alopecurus myosuroides); details: for Blackgrass plant response rating: 8 g ai/ha
How it was run: as §1

[12] = system: surinam grass (Brachiaria decumbens); details: for Surinam Grass plant response rating: 8 g ai/ha
How it was run: as §1

[13] = Postemergence, 16 g ai/ha, scale 0 to 100
[14] = Postemergence, 31 g ai/ha, scale 0 to 100, 0 no effect, 100 complete control
[15] = Postemergence, 62 g ai/ha, scale 0 to 100, 0 no effect, 100 complete control
[16] = Preemergence, 16 g ai/ha, scale 0 to 100 (0 no effect, 100 complete control)
[17] = Preemergence, 31 g ai/ha, 0 to 100 scale, 0 no effect, 100 complete control
[18] = Preemergence, 62 g ai/ha, scale 0 to 100
[19] = Preemergence, 31 g ai/ha, scale 0 to 100 (0 no effect, 100 complete control)

CCCc1cc(-c2ccc(Cl)cc2)nn1-c1c(O)cnn(C)c1=O [Compound 43]
Bromegrass, Downy plant response rating ([1]; postemergence, 0-100 scale): 40 | Plant response rating, Bromegrass, Downy [1, 13]: 45 | Plant response rating, Bromegrass, Downy [1, 14]: 60 | Plant response rating, Bromegrass, Downy [1, 15]: 65 | Plant response rating, Bromegrass, Downy [1, 16]: 0 | Plant response rating, Bromegrass, Downy [1, 17]: 70 | Plant response rating, Bromegrass, Downy [1, 18]: 80 | Bromegrass, Downy plant response rating ([1]; Preemergence, scale 0 to 100): 0 | Oat, Wild plant response rating (wild oat (Avena fatua); postemergence, 0-100 scale): 95 | Plant response rating, Oat, Wild (wild oat (Avena fatua); [13]): 100 | Plant response rating, Oat, Wild (wild oat (Avena fatua); [14]): 100 | Plant response rating, Oat, Wild (wild oat (Avena fatua); [15]): 100 | Plant response rating, Oat, Wild (wild oat (Avena fatua); [16]): 90 | Plant response rating, Oat, Wild (wild oat (Avena fatua); [19]): 95 | Plant response rating, Oat, Wild (wild oat (Avena fatua); [18]): 95 | Oat, Wild plant response rating (wild oat (Avena fatua); Preemergence, scale 0 to 100): 70 | Corn plant response rating (corn (Zea mays); postemergence, 0-100 scale): 80 | Plant response rating, Corn (corn (Zea mays); [13]): 85 | Plant response rating, Corn (corn (Zea mays); [14]): 85 | Plant response rating, Corn (corn (Zea mays); [15]): 100 | Plant response rating, Corn (corn (Zea mays); [16]): 70 | Plant response rating, Corn (corn (Zea mays); [17]): 85 | Plant response rating, Corn (corn (Zea mays); [18]): 100 | Corn plant response rating (corn (Zea mays); Preemergence, scale 0 to 100): 0 | Cupgrass, Woolly plant response rating ([2]; postemergence, 0-100 scale): 80 | Plant response rating, Cupgrass, Woolly [2, 13]: 90 | Plant response rating, Cupgrass, Woolly [2, 14]: 95 | Plant response rating, Cupgrass, Woolly [2, 15]: 95 | Plant response rating, Cupgrass, Woolly [2, 16]: 60 | Plant response rating, Cupgrass, Woolly [2, 17]: 98 | Plant response rating, Cupgrass, Woolly [2, 18]: 100 | Cupgrass, Woolly plant response rating ([2]; Preemergence, scale 0 to 100): 0 | Ragweed plant response rating ([3]; postemergence, 0-100 scale): 0 | Plant response rating, Ragweed [3, 13]: 0 | Plant response rating, Ragweed [3, 14]: 0 | Plant response rating, Ragweed [3, 15]: 0 | Plant response rating, Ragweed [3, 16]: 0 | Plant response rating, Ragweed [3, 19]: 0 | Plant response rating, Ragweed [3, 18]: 0 | Ragweed plant response rating ([3]; Preemergence, scale 0 to 100): 0 | Morningglory plant response rating ([4]; postemergence, 0-100 scale): 0 | Plant response rating, Morningglory [4, 13]: 0 | Plant response rating, Morningglory [4, 14]: 0 | Plant response rating, Morningglory [4, 15]: 0 | Plant response rating, Morningglory [4, 16]: 0 | Plant response rating, Morningglory [4, 19]: 0 | Plant response rating, Morningglory [4, 18]: 0 | Morningglory plant response rating ([4]; Preemergence, scale 0 to 100): 0 | Goosegrass plant response rating ([5]; postemergence, 0-100 scale): 60 | Plant response rating, Goosegrass [5, 13]: 70 | Plant response rating, Goosegrass [5, 14]: 75 | Plant response rating, Goosegrass [5, 15]: 85 | Plant response rating, Goosegrass [5, 16]: 75 | Plant response rating, Goosegrass [5, 17]: 98 | Plant response rating, Goosegrass [5, 18]: 100 | Goosegrass plant response rating ([5]; Preemergence, scale 0 to 100): 65 | Lambsquarters plant response rating ([6]; postemergence, 0-100 scale): 0 | Plant response rating, Lambsquarters [6, 13]: 0 | Plant response rating, Lambsquarters [6, 14]: 0 | Plant response rating, Lambsquarters [6, 15]: 0 | Plant response rating, Lambsquarters [6, 16]: 0 | Plant response rating, Lambsquarters [6, 17]: 0 | Plant response rating, Lambsquarters [6, 18]: 0 | Lambsquarters plant response rating ([6]; Preemergence, scale 0 to 100): 0 | Plant response rating, Galium ([7]; 16 g ai/ha, scale 0 to 100 (0 no effect, 100 complete control)): 0 | Plant response rating, Galium ([7]; 31 g ai/ha, 0 to 100 scale, 0 no effect, 100 complete control): 0 | Plant response rating, Galium ([7]; 62 g ai/ha, scale 0 to 100): 0 | Galium plant response rating ([7]; 8 g ai/ha, scale 0 to 100): 0 | Pigweed plant response rating ([8]; postemergence, 0-100 scale): 0 | Plant response rating, Pigweed [8, 13]: 0 | Plant response rating, Pigweed [8, 14]: 0 | Plant response rating, Pigweed [8, 15]: 0 | Plant response rating, Pigweed [8, 16]: 0 | Plant response rating, Pigweed [8, 19]: 0 | Plant response rating, Pigweed [8, 18]: 0 | Pigweed plant response rating ([8]; Preemergence, scale 0 to 100): 0 | Foxtail, Green plant response rating ([9]; postemergence, 0-100 scale): 60 | Plant response rating, Foxtail, Green [9, 13]: 75 | Plant response rating, Foxtail, Green [9, 14]: 100 | Plant response rating, Foxtail, Green [9, 15]: 100 | Plant response rating, Foxtail, Green [9, 16]: 100 | Plant response rating, Foxtail, Green [9, 17]: 100 | Plant response rating, Foxtail, Green [9, 18]: 100 | Foxtail, Green plant response rating ([9]; Preemergence, scale 0 to 100): 100 | Foxtail, Giant plant response rating ([10]; postemergence, 0-100 scale): 85 | Plant response rating, Foxtail, Giant [10, 13]: 98 | Plant response rating, Foxtail, Giant [10, 14]: 98 | Plant response rating, Foxtail, Giant [10, 15]: 100 | Plant response rating, Foxtail, Giant [10, 16]: 100 | Plant response rating, Foxtail, Giant [10, 17]: 100 | Plant response rating, Foxtail, Giant [10, 18]: 100 | Foxtail, Giant plant response rating ([10]; Preemergence, scale 0 to 100): 95 | Blackgrass plant response rating ([11]; postemergence, 0-100 scale): 85 | Plant response rating, Blackgrass [11, 13]: 85 | Plant response rating, Blackgrass [11, 14]: 95 | Plant response rating, Blackgrass [11, 15]: 100 | Plant response rating, Blackgrass [11, 16]: 95 | Plant response rating, Blackgrass [11, 17]: 100 | Plant response rating, Blackgrass [11, 18]: 100 | Blackgrass plant response rating ([11]; Preemergence, scale 0 to 100): 70 | Surinam Grass plant response rating ([12]; postemergence, 0-100 scale): 65 | Plant response rating, Surinam Grass [12, 13]: 95 | Plant response rating, Surinam Grass [12, 15]: 100 | Plant response rating, Surinam Grass [12, 16]: 90 | Plant response rating, Surinam Grass [12, 19]: 100 | Plant response rating, Surinam Grass ([12]; Preemergence, 62 g ai/ha, 0 to 100 scale, 0 no effect, 100 complete control): 100 | Surinam Grass plant response rating ([12]; Preemergence, scale 0 to 100): 0
